From US9795607B2, “Substituted pyrrolopyrimidine compounds, compositions thereof, and methods of treatment therewith” (Signal Pharmaceutical, LLC, priority 2013, dated 2017)
pIC50: −log10 of the molar value.

Each molecule was assayed on Triple negative breast cancer cell line CAL51 (assay: Cell Titer Glo proliferation assay, CAL51). Conditions: Homo sapiens, CAL-51; CAL51 cell proliferation (Table 1); read-out: Act. Level.
Format: cell-based
Method in brief: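 CAL51 cells grown in DMEM or RPMI1640 with 10% FBS and 2 mM L-glutamine, cultured overnight, then exposed to serially diluted compound (0.2% DMSO final) for 72 h. Viability read by Cell Titer Glo luminescence.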
Molecule `COc1nc(Nc2ccc(C(=O)N(C)C)cc2C)nc2[nH]cc(-c3cc(C)nc(F)c3)c12` [Example 420, 4-(5-(2-fluoro-6-methylpyridin-4-yl)-4-methoxy-7H-pyrrolo[2,3-d]pyrimidin-2-ylamino)-N,N,3-trimethylbenzamide] has a pIC50 greater than 7.00.
Work on `COc1cc(C(=O)N(C)C)ccc1Nc1nc(OC)c2c(-c3cc(C)nc(F)c3)c[nH]c2n1` [Example 418, 4-(5-(2-fluoro-6-methylpyridin-4-yl)-4-methoxy-7H-pyrrolo[2,3-d]pyrimidin-2-ylamino)-3-methoxy-N,N-dimethylbenzamide] yielded a pIC50 greater than 7.00.
`COc1cc(C(=O)N(C)C)ccc1Nc1nc(OC)c2c(-c3ccnc(F)c3)c[nH]c2n1` [Example 412, 4-(5-(2-fluoropyridin-4-yl)-4-methoxy-7H-pyrrolo[2,3-d]pyrimidin-2-ylamino)-3-methoxy-N,N-dimethylbenzamide] was tested, and the pIC50 was 6.00 to 6.40.
Molecule `COc1nc(Nc2ccc(C(=O)N(C)C)cc2C)nc2[nH]cc(-c3ccnc(F)c3)c12` [Example 409, 4-(5-(2-fluoropyridin-4-yl)-4-methoxy-7H-pyrrolo[2,3-d]pyrimidin-2-ylamino)-N,N,3-trimethylbenzamide] has a pIC50 of 6.00 to 6.40.
Work on `COc1cc(C2CCOCC2)ncc1Nc1nc(OC)c2c(-c3ccnc(F)c3)c[nH]c2n1` [Example 416, 5-(2-fluoropyridin-4-yl)-4-methoxy-N-(4-methoxy-6-(tetrahydro-2H-pyran-4-yl)pyridin-3-yl)-7H-pyrrolo[2,3-d]pyrimidin-2-amine] yielded a pIC50 of 5.00 to 6.00.
In the case of `CNC(=O)c1ccc(-c2c[nH]c3nc(Nc4ccc(C(=O)NC)cc4Cl)nc(O[C@@H]4CCOC4)c23)cc1` [Example 434, (R)-3-chloro-N-methyl-4-(5-(4-(methylcarbamoyl)phenyl)-4-(tetrahydrofuran-3-yloxy)-7H-pyrrolo[2,3-d]pyrimidin-2-ylamino)benzamide], the pIC50 was greater than 7.00.
`COc1cc(C(=O)N(C)C)ccc1Nc1nc(OC(C)C)c2c(-c3ccnc(F)c3)c[nH]c2n1` [Example 403, 4-(5-(2-fluoropyridin-4-yl)-4-isopropoxy-7H-pyrrolo[2,3-d]pyrimidin-2-ylamino)-3-methoxy-N,N-dimethylbenzamide] gave a pIC50 greater than 7.00.
In the case of `COc1cc(C(=O)NC2COC2)ccc1Nc1nc(OC)c2c(-c3ccc4[nH]c(C)nc4c3)c[nH]c2n1` [Example 404, 3-methoxy-4-(4-methoxy-5-(2-methyl-1H-benzo[d]imidazol-5-yl)-7H-pyrrolo[2,3-d]pyrimidin-2-ylamino)-N-(oxetan-3-yl)benzamide], the pIC50 was 6.40 to 7.00.
With `CCCc1cc(C(=O)NC)ccc1Nc1nc(OC2CCOCC2)c2c(-c3ccc4nc(C)oc4c3)c[nH]c2n1` [Example 436, N-methyl-4-(5-(2-methylbenzo[d]oxazol-6-yl)-4-(tetrahydro-2H-pyran-4-yloxy)-7H-pyrrolo[2,3-d]pyrimidin-2-ylamino)-3-propylbenzamide] the pIC50 was greater than 7.00.
In the case of `COc1nc(Nc2ccc(C(=O)N(C)C3COC3)cc2C)nc2[nH]cc(-c3ccncc3)c12` [Example 406, 4-(4-methoxy-5-(pyridin-4-yl)-7H-pyrrolo[2,3-d]pyrimidin-2-ylamino)-N,3-dimethyl-N-(oxetan-3-yl)benzamide], the pIC50 was 6.40 to 7.00.
`COc1cc(C(=O)N(C)C2COC2)ccc1Nc1nc(OC)c2c(-c3ccnc(F)c3)c[nH]c2n1` [Example 413, 4-(5-(2-fluoropyridin-4-yl)-4-methoxy-7H-pyrrolo[2,3-d]pyrimidin-2-ylamino)-3-methoxy-N-methyl-N-(oxetan-3-yl)benzamide] showed a pIC50 of 6.40 to 7.00.
Work on `Cc1cc(C(=O)N(C)C)ccc1Nc1nc(OC(C)C)c2c(-c3ccnc(F)c3)c[nH]c2n1` [Example 402, 4-(5-(2-fluoropyridin-4-yl)-4-isopropoxy-7H-pyrrolo[2,3-d]pyrimidin-2-ylamino)-N,N,3-trimethylbenzamide] yielded a pIC50 greater than 7.00.

Same assay, conditions: Homo sapiens, CAL-51; CAL51 cell proliferation, Cell Titer Glo; read-out: Act. Level
`COc1cc(C(=O)NC2CN(C)C2)ccc1Nc1nc(OC2CCCC2)c2c(-c3ccc(-c4ncc[nH]4)cc3)c[nH]c2n1` [Example 361, 4-(5-(4-(1H-imidazol-2-yl)phenyl)-4-(cyclopentyloxy)-7H-pyrrolo[2,3-d]pyrimidin-2-ylamino)-3-methoxy-N-(1-methylazetidin-3-yl)benzamide] was tested, and the pIC50 was 6.40 to 7.00.
`CNC(=O)c1ccc(Nc2nc(OC3CCC(C)(O)CC3)c3c(-c4ccc5nc(C)oc5c4)c[nH]c3n2)c(OC)c1` (stereo not drawn) [Example 205, 4-(4-((1r,4r)-4-hydroxy-4-methylcyclohexyloxy)-5-(2-methylbenzo[d]oxazol-6-yl)-7H-pyrrolo[2,3-d]pyrimidin-2-ylamino)-3-methoxy-N-methylbenzamide] gave a pIC50 greater than 7.00.
Work on `COc1nc(Nc2ccc(C(=O)N(C)C)cc2C)nc2[nH]cc(-c3ccc(F)cc3)c12` [Example 390, 4-(5-(4-fluorophenyl)-4-methoxy-7H-pyrrolo[2,3-d]pyrimidin-2-ylamino)-N,N,3-trimethylbenzamide] yielded a pIC50 of 5.00 to 6.00.
Molecule `CNC(=O)c1ccc(Nc2nc(OC3CCCC3)c3c(-c4cc(F)c5nc(C)oc5c4)c[nH]c3n2)c(OC)c1` [Example 330, 4-(4-(cyclopentyloxy)-5-(4-fluoro-2-methylbenzo[d]oxazol-6-yl)-7H-pyrrolo[2,3-d]pyrimidin-2-ylamino)-3-methoxy-N-methylbenzamide] has a pIC50 of 6.40 to 7.00.
For `COc1cc(C(=O)NC2CN(C)C2)ccc1Nc1nc(OC2CC2)c2c(-c3ccc4nc(C)oc4c3)c[nH]c2n1` [Example 363, 4-(4-cyclopropoxy-5-(2-methylbenzo[d]oxazol-6-yl)-7H-pyrrolo[2,3-d]pyrimidin-2-ylamino)-3-methoxy-N-(1-methylazetidin-3-yl)benzamide], the pIC50 was greater than 7.00.
Molecule `CNC(=O)c1ccc(Nc2nc(OC3CCCC3)c3c(-c4cccc(O)c4)c[nH]c3n2)c(OC)c1` [Example 323, 4-(4-(cyclopentyloxy)-5-(3-hydroxyphenyl)-7H-pyrrolo[2,3-d]pyrimidin-2-ylamino)-3-methoxy-N-methylbenzamide] has a pIC50 greater than 7.00.
`COc1cc(C(=O)N2C[C@H]2CO)ccc1Nc1nc(OC2CCCC2)c2c(-c3ccc4nc(C)oc4c3)c[nH]c2n1` [Example 350, (S)-(4-(4-(cyclopentyloxy)-5-(2-methylbenzo[d]oxazol-6-yl)-7H-pyrrolo[2,3-d]pyrimidin-2-ylamino)-3-methoxyphenyl)(2-(hydroxymethyl)aziridin-1-yl)methanone] showed a pIC50 of 6.40 to 7.00.
Work on `CNC(=O)c1ccc(-c2c[nH]c3nc(Nc4ccc(C(=O)NC5COC5)cc4OC)nc(O[C@H]4CCOC4)c23)cc1` [Example 376, (S)-3-methoxy-4-(5-(4-(methylcarbamoyl)phenyl)-4-(tetrahydrofuran-3-yloxy)-7H-pyrrolo[2,3-d]pyrimidin-2-ylamino)-N-(oxetan-3-yl)benzamide] yielded a pIC50 greater than 7.00.
For `COc1cc(C(=O)NC2CN(C)C2)ccc1Nc1nc(OC2CCOCC2)c2c(-c3ccc4nc(C)oc4c3)c[nH]c2n1` [Example 367, 3-methoxy-N-(1-methylazetidin-3-yl)4-(5-(2-methylbenzo[d]oxazol-6-yl)-4-(tetrahydro-2H-pyran-4-yloxy)-7H-pyrrolo[2,3-d]pyrimidin-2-ylamino)benzamide], the pIC50 was 6.40 to 7.00.
`CNC(=O)c1ccc(Nc2nc(OC3CCCC3)c3c(-c4c(C)noc4C)c[nH]c3n2)c(OC)c1` [Example 321, 4-(4-(cyclopentyloxy)-5-(3,5-dimethylisoxazol-4-yl)-7H-pyrrolo[2,3-d]pyrimidin-2-ylamino)-3-methoxy-N-methylbenzamide] was tested, and the pIC50 was 5.00 to 6.00.
Molecule `COc1cc(C(=O)NC2COC2)ccc1Nc1nc(OC2CCOCC2)c2c(-c3ccc4nc(C)oc4c3)c[nH]c2n1` [Example 368, 3-methoxy-4-(5-(2-methylbenzo[d]oxazol-6-yl)-4-(tetrahydro-2H-pyran-4-yloxy)-7H-pyrrolo[2,3-d]pyrimidin-2-ylamino)-N-(oxetan-3-yl)benzamide] has a pIC50 greater than 7.00.
Work on `CNC(=O)c1ccc(-c2c[nH]c3nc(Nc4ccc(C(=O)NC5COC5)cc4OC)nc(OC4CC(C#N)C4)c23)cc1` (stereo not drawn) [Example 341, 4-(4-(3-cyanocyclobutoxy)-5-(4-(methylcarbamoyl)phenyl)-7H-pyrrolo[2,3-d]pyrimidin-2-ylamino)-3-methoxy-N-(oxetan-3-yl)benzamide] yielded a pIC50 greater than 7.00.
For `COCCOc1nc(Nc2ccc(C(=O)NC3COC3)cc2OC)nc2[nH]cc(-c3ccc4nc(C)oc4c3)c12` [Example 365, 3-methoxy-4-(4-(2-methoxyethoxy)-5-(2-methylbenzo[d]oxazol-6-yl)-7H-pyrrolo[2,3-d]pyrimidin-2-ylamino)-N-(oxetan-3-yl)benzamide], the pIC50 was greater than 7.00.
For `CNC(=O)c1ccc(Nc2nc(OC3CCCC3)c3c(-c4cccc(N(C)C)c4)c[nH]c3n2)c(OC)c1` [Example 322, 4-(4-(cyclopentyloxy)-5-(3-(dimethylamino)phenyl)-7H-pyrrolo[2,3-d]pyrimidin-2-ylamino)-3-methoxy-N-methylbenzamide], the pIC50 was 6.00 to 6.40.
`COc1nc(Nc2cn(C)nc2C)nc2[nH]cc(-c3ccncc3)c12` [Example 393, N-(1,3-dimethyl-1H-pyrazol-4-yl)-4-methoxy-5-(pyridin-4-yl)-7H-pyrrolo[2,3-d]pyrimidin-2-amine] was tested, and the pIC50 was 6.40 to 7.00.
`Cc1nc2ccc(-c3c[nH]c4nc(Nc5cnn(C6CCOCC6)c5Cl)nc(OC5CCCC5)c34)cc2o1` [Example 377, N-(5-chloro-1-(tetrahydro-2H-pyran-4-yl)-1H-pyrazol-4-yl)-4-(cyclopentyloxy)-5-(2-methylbenzo[d]oxazol-6-yl)-7H-pyrrolo[2,3-d]pyrimidin-2-amine] gave a pIC50 greater than 7.00.
Molecule `COc1cc(C(=O)N(C)C)ccc1Nc1nc(OC)c2c(-c3ccncc3)c[nH]c2n1` [Example 392, 3-methoxy-4-(4-methoxy-5-(pyridin-4-yl)-7H-pyrrolo[2,3-d]pyrimidin-2-ylamino)-N,N-dimethylbenzamide] has a pIC50 greater than 7.00.
In the case of `COc1cc(C(=O)NC2COC2)ccc1Nc1nc(OC)c2c(-c3ccnc(C)c3)c[nH]c2n1` [Example 383, 3-methoxy-4-(4-methoxy-5-(2-methylpyridin-4-yl)-7H-pyrrolo[2,3-d]pyrimidin-2-ylamino)-N-(oxetan-3-yl)benzamide], the pIC50 was greater than 7.00.
